Consider 15 compounds from ChEMBL document CHEMBL4261640, “Potent Antiglioblastoma Agents by Hybridizing the Onium-Alkyloxy-Stilbene Based Structures of an α7-nAChR, α9-nAChR Antagonist and of a Pro-Oxidant Mitocan” (J Med Chem, 2018).

The source made the active and inactive calls. The rule behind the calls is not given here.

For data set [1], the system named is U-87 MG. In words: Induction of ROS production in human U87MG cells at 500 nM after 1 hr by MitoSOX Red mitochondrial superoxide indicator based FACS analysis relative to antimycin A. It counts as functional, U-87MG ATCC. (A flow cytometer gives signals particle by particle.)
In data set [2] the target is T1, Neuronal acetylcholine receptor subunit alpha-7 (Homo sapiens, UniProt P36544). In words: Displacement of [125I]-alpha-bungarotoxin from human alpha7 nAChR expressed in human SH-SY5Y cell membranes after 30 mins by gamma counting analysis.
Data set [3] in a line: Drug uptake in human HepG2 cells assessed as relative fluorescence unit at 1 uM after 1 hr to 24 hrs by fluorescent plate reader based assay. The class given is ADME, cell-based. Conditions: hepg2, 1 µM.
The subject of data set [4] is U-87 MG. In words: cells. Conditions: Homo sapiens, 72 h.
Description: Antiproliferative activity against human U87MG cells after 72 hrs by MTS assay
For another data set, the system named is A549. In words: cells. Conditions: Homo sapiens, A549, 72 h.
In data set [5] the target is T1, Neuronal acetylcholine receptor subunit alpha-7. In words: Antagonist activity at human alpha7 nACHR expressed in xenopous laevis oocyte assessed as inhibition of ACh-induced channel current after 5 mins at -70 mV holding potential by two electrode voltage clamp method. Background: In two-electrode clamp one electrode senses voltage and the other passes current.

For data set [6], the system named is U-87 MG. In words: Induction of ROS production in human U87MG cells after 1 hr by MitoSOX Red mitochondrial superoxide indicator based FACS analysis. The class given is functional, cell-based. The settings on record: U-87MG ATCC.
In data set [7] the target is Neuronal acetylcholine receptor; alpha9/alpha10 (Homo sapiens, UniProt Q9GZZ6+Q9UGM1). In words: Antagonist activity at human alpha9alpha10 nACHR expressed in xenopous laevis oocyte assessed as inhibition of ACh-induced channel current after 5 mins at -70 mV holding potential by two electrode voltage clamp method.
Another data set concerns SH-SY5Y. In words: Antiproliferative activity against human SH-SY5Y cells after 72 hrs by MTS assay. For orientation: Formazan colour is commonly taken as a measure of viable cells.
The subject of a further data set is Astrocyte. In words: Cytotoxicity against mouse astrocytes assessed as reduction in cell viability after 72 hrs by MTS assay.
Data set [8] deals with U-87 MG. In words: Cytotoxicity against human U87MG cells assessed as decrease in ATP production at 1 uM after 1 hr by luciferin-luciferase-based luminescent assay. The class given is functional, cell-based. Conditions: U-87MG ATCC.
The test system of data set [9] is U-87 MG. In words: Reduction in mitochondrial membrane potential in human U87MG cells after 72 hrs by TMRM-staining based assay. It counts as functional, cell-based. Conditions: U-87MG ATCC.
The subject of data set [10] is U-87 MG. In words: Cytotoxicity against human U87MG cells assessed as decrease in ATP production at 1 uM after 72 hrs by luciferin-luciferase-based luminescent assay. It counts as functional, cell-based. The settings on record: U-87MG ATCC.
Data set [11] has as its system U-87 MG. In words: Reduction in mitochondrial membrane potential in human U87MG cells after 72 hr by TMRM-staining based assay. Conditions: U-87MG ATCC.
In data set [12] the test system is U-87 MG. In words: Cytotoxicity against human U87MG cells assessed as decrease in ATP production at 0.1 uM after 1 hr by luciferin-luciferase-based luminescent assay. The class given is functional, cell-based. The settings on record: U-87MG ATCC.
For data set [13], the system named is U-87 MG. In words: Cytotoxicity against human U87MG cells assessed as decrease in ATP production at 0.1 uM after 72 hrs by luciferin-luciferase-based luminescent assay. It counts as functional, cell-based. The settings on record: U-87MG ATCC.
Data set [14] has as its system U-87 MG. In words: Cytotoxicity against human U87MG cells assessed as decrease in ATP production at 4 uM after 72 hrs by luciferin-luciferase-based luminescent assay. The class given is functional, cell-based. Conditions: U-87MG ATCC.
For data set [15], the system named is U-87 MG. In words: Cytotoxicity against human U87MG cells assessed as decrease in ATP production at 2 uM after 1 hr by luciferin-luciferase-based luminescent assay. The class given is functional, cell-based. Conditions: U-87MG ATCC.
The subject of data set [16] is U-87 MG. In words: Cytotoxicity against human U87MG cells assessed as decrease in ATP production at 2 uM after 72 hrs by luciferin-luciferase-based luminescent assay. The class given is functional, cell-based. The settings on record: U-87MG ATCC.
The nature of data set [17]: Drug uptake in human HepG2 cells assessed as relative fluorescence unit at 10 uM after 6 hrs by fluorescent plate reader based assay. It counts as ADME, cell-based. The settings on record: hepg2, 6 h.
A short description of data set [18]: Drug uptake in human HepG2 cells assessed as relative fluorescence unit at 100 uM after 6 hrs by fluorescent plate reader based assay. It counts as ADME, cell-based. Conditions: hepg2, 6 h.
A short description of data set [19]: Drug uptake in human HepG2 cells assessed as relative fluorescence unit at 50 uM after 6 hrs by fluorescent plate reader based assay. It counts as ADME, cell-based. The settings on record: hepg2, 6 h.
The nature of data set [20]: Drug uptake in human HepG2 cells assessed as relative fluorescence unit at 1 uM after 6 hrs by fluorescent plate reader based assay. The class given is ADME, cell-based. The settings on record: hepg2, 6 h.
The nature of data set [21]: Drug uptake in human HepG2 cells by fluorescent plate reader based assay. It counts as ADME, cell-based.
Data set [22] in a line: Drug uptake in human HepG2 cells assessed as relative fluorescence unit at 1 uM after 24 hrs by fluorescent plate reader based assay. The settings on record: hepg2, 24 h. The class given is ADME, cell-based.
A short description of data set [23]: Drug uptake in human HepG2 cells assessed as relative fluorescence unit at 10 uM after 24 hrs by fluorescent plate reader based assay. It counts as ADME, cell-based. The settings on record: hepg2, 24 h.
A short description of data set [24]: Drug uptake in human HepG2 cells assessed as relative fluorescence unit at 50 uM after 24 hrs by fluorescent plate reader based assay. The class given is ADME, cell-based. The settings on record: hepg2, 24 h.
Data set [25] can be described thus: Drug uptake in human HepG2 cells assessed as relative fluorescence unit at 100 uM after 24 hrs by fluorescent plate reader based assay. The class given is ADME, cell-based. The settings on record: hepg2, 24 h.
A short description of data set [26]: Drug metabolism in human HepG2 cells assessed as loss of styrene moiety at 100 uM incubated for 24 hrs by MS/MS analysis. Conditions: hepg2, 24 h. It counts as ADME, cell-based.

T1 sequence (P36544 whole entry): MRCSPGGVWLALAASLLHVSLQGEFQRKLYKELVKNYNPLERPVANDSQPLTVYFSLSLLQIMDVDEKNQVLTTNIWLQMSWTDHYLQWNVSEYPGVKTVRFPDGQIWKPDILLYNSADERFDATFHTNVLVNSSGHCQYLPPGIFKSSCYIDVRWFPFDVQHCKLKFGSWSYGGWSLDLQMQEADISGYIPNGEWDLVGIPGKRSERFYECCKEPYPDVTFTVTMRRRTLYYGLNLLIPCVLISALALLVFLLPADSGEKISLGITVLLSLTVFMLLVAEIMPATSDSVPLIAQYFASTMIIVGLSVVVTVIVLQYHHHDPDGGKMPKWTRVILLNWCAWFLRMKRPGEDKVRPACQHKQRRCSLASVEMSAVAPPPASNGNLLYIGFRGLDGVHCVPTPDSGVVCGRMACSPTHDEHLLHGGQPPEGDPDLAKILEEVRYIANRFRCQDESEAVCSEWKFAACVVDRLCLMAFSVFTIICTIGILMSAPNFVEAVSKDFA
Neuronal acetylcholine receptor; alpha9/alpha10, sequence (Q9UGM1 whole entry): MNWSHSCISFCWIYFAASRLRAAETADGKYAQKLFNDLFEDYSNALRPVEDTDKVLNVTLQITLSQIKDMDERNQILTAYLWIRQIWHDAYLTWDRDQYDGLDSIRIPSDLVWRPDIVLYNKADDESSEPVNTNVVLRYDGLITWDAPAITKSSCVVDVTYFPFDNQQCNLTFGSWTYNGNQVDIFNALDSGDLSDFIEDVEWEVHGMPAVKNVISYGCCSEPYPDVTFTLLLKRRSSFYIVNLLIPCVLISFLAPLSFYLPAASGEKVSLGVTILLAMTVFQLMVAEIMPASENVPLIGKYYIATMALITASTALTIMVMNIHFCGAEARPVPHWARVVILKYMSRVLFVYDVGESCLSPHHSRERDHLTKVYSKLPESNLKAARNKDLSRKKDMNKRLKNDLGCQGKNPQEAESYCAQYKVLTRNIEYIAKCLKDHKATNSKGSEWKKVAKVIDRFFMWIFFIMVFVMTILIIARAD
Neuronal acetylcholine receptor; alpha9/alpha10, sequence (Q9GZZ6 whole entry): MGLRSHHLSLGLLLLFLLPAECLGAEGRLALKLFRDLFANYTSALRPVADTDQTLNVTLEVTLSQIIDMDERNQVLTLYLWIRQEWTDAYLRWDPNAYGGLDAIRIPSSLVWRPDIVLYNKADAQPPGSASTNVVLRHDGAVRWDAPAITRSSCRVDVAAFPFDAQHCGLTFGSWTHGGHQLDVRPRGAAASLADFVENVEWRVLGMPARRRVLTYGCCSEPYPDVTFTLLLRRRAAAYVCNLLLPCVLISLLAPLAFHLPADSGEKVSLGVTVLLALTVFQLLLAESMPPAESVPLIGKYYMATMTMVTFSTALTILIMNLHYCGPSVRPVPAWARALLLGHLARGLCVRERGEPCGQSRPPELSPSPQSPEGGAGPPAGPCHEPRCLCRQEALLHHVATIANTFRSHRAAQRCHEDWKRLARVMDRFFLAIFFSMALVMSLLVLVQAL
Description for A549: Antiproliferative activity against human A549 cells after 72 hrs by MTS assay

As usually defined, the Ki is the equilibrium dissociation constant of an inhibitor or competing ligand from its target. By IC50 is commonly meant the concentration at which inhibition is half-maximal. As to `C(=C\c1ccc(OCCCCCCCC[P+](c2ccccc2)(c2ccccc2)c2ccccc2)cc1)/c1ccccc1.[I-]`, the Activity in the data set with U-87 MG [1] is given as 46.3%. Moreover, the affinity in data set [2], expressed as Ki, was 0.909 µM. For the same compound, the Drug uptake result in [3] is recorded as “Active”. Also, the IC50 with U-87 MG [4] is 0.07 µM; in the data set with A549, 0.26 µM.

In data set [2], `CC[N+](CC)(CC)CCCCCCOc1ccc(/C=C/c2ccccc2)cc1` displayed a Ki of 0.465 µM. In addition, in [5], the IC50 worked out at 0.0123 µM.

In data set [2], `CC[N+](CC)(CC)CCCCCCCCOc1ccc(/C=C/c2ccccc2)cc1.[I-]` returned a Ki of 0.164 µM. Moreover, the IC50 in data set [5] came out at 0.092 µM. Besides, the Drug uptake entry in data set [3] was “Active”.

`CC[N+](CC)(CC)CCCCOc1ccc(/C=C/c2ccccc2)cc1.[I-]`: the Ki in data set [2] was 0.186 µM. The IC50 in [5] came to 0.0065 µM. The Drug uptake result in data set [3] is given as “Active”.

Regarding `COc1cc(/C=C/c2ccc(OCCCC[P+](c3ccccc3)(c3ccccc3)c3ccccc3)cc2)cc(OC)c1.[I-]`, the values for the Activity with U-87 MG [1] and in the data set on U-87 MG [6] were 16.3% and “Dose-dependent effect”, respectively. Also, the Ki in [2] worked out at 1.83 µM. Besides, the IC50 in data set [5] is more than 10 µM; in data set [7], more than 10 µM; in the data set with SH-SY5Y it was 0.55 µM; in the data set on Astrocyte it was 1 µM; with U-87 MG [4], 0.86 µM; in the data set on A549 it was 0.26 µM. Also, the result in the data set on U-87 MG [8], in the data set on U-87 MG [9], with U-87 MG [10] and in the data set with U-87 MG [11] was Active.

On to `C(=C\c1ccc(OCCCCCCCCCC[P+](c2ccccc2)(c2ccccc2)c2ccccc2)cc1)/c1ccccc1.[I-]`, for which the figures for the Activity with U-87 MG [1] and in the data set on U-87 MG [6] were 58.2% and “Dose-dependent effect”, respectively. Moreover, the affinity in data set [2] corresponds to a Ki of 1.93 µM. Besides, the IC50 in the data set with SH-SY5Y turned out to be 0.21 µM; in the data set with Astrocyte it was 0.6 µM; in the data set on U-87 MG [4], 0.06 µM; in the data set with A549 it was 0.1 µM. The result with U-87 MG [12], with U-87 MG [9], with U-87 MG [13] and with U-87 MG [11] was Active.

Consider `CC[N+](CC)(CC)CCOc1ccc(/C=C/c2cc(OC)cc(OC)c2)cc1`, for which the result in the data set with U-87 MG [6] was inactive. Besides, the IC50 in [7] is 0.0172 µM; in the data set with SH-SY5Y, more than 100 µM; in the data set with Astrocyte it was 23 µM; in the data set with U-87 MG [4], 5.3 µM; in the data set on A549 it was 12 µM. Also, the outcome with U-87 MG [14], in the data set on U-87 MG [9] and in the data set with U-87 MG [11] was Active.

With `CC[N+](CC)(CC)CCCCOc1ccc(/C=C/c2cc(OC)cc(OC)c2)cc1`, the Ki in data set [2] came out at 0.305 µM. For the same compound, in data set [5], the IC50 is 0.0243 µM.

Turning to `C(=C\c1ccc(OCCCCC[P+](c2ccccc2)(c2ccccc2)c2ccccc2)cc1)/c1ccccc1.[I-]`, the Activity in the data set on U-87 MG [1] is recorded as 20%. The same compound registered an inhibitory constant (Ki) in data set [2] of 2.8 µM. Also, the IC50 with U-87 MG [4] is 0.67 µM; in the data set on A549 it was 0.32 µM.

With `C(=C\c1ccc(OCCCC[P+](c2ccccc2)(c2ccccc2)c2ccccc2)cc1)/c1ccccc1.[I-]`, the Activity was 1.5% with U-87 MG [1] and “Dose-dependent effect” in the data set on U-87 MG [6]. In addition, in data set [2], the Ki amounted to 1.64 µM. Also, the IC50 in the data set on SH-SY5Y came out at 3 µM; in the data set with Astrocyte, 0.4 µM; with U-87 MG [4] it was 0.64 µM; in the data set on A549 it was 0.42 µM. Moreover, the result in the data set with U-87 MG [15], with U-87 MG [9], with U-87 MG [16] and in the data set with U-87 MG [11] was Active.

The compound `C(=C\c1ccc(OCCCCCCC[P+](c2ccccc2)(c2ccccc2)c2ccccc2)cc1)/c1ccccc1.[I-]` yielded an Activity in the data set with U-87 MG [1] of 39.5%. Further, the Ki in [2] was found to be 0.617 µM. The IC50 was 0.36 µM in the data set with U-87 MG [4] and 0.12 µM in the data set with A549.

As to `CC[N+](CC)(CC)CCOc1ccc(/C=C/c2ccccc2)cc1.[I-]` [STILONIUM IODIDE], the Drug uptake in data set [17] is 6.82 RFU; in data set [18] it was 9.43 RFU; in [19], 7.67 RFU; in data set [20], 4.75 RFU; in data set [21] it was “Dose-dependent effect and Tde”; in data set [22] it was 5.42 RFU. Further, the Drug uptake was found to be 7.18 RFU in [23], 9.13 RFU in data set [24] and 14.35 RFU in data set [25]. Further, the outcome with U-87 MG [14], with U-87 MG [9] and in the data set with U-87 MG [11] was Active. In addition, the Drug metabolism result in [26] was “Metabolite_Detected”.

The compound `C(=C\c1ccc(OCCC[P+](c2ccccc2)(c2ccccc2)c2ccccc2)cc1)/c1ccccc1.[I-]` displayed an Activity in the data set on U-87 MG [1] of 21%. For the same compound, in data set [2], the Ki stood at 0.984 µM. For the same compound, the IC50 in the data set on U-87 MG [4] stood at 1.4 µM; in the data set with A549, 1.8 µM.

`C(=C\c1ccc(OCCCCCC[P+](c2ccccc2)(c2ccccc2)c2ccccc2)cc1)/c1ccccc1.[I-]` came in with an Activity with U-87 MG [1] of 27.3%. Besides, in data set [2], the Ki turned out to be 0.559 µM. For the same compound, the IC50 came out at 0.38 µM in the data set with U-87 MG [4] and 0.15 µM with A549.

Regarding `C(=C\c1ccc(OCCCCCCCCC[P+](c2ccccc2)(c2ccccc2)c2ccccc2)cc1)/c1ccccc1.[I-]`, the Activity in the data set on U-87 MG [1] is 56.3%. Also, the Ki in [2] turned out to be 1.29 µM. The IC50 in the data set on U-87 MG [4] was 0.09 µM; in the data set with A549 it was 0.11 µM.
